Reference: publication PMC11849073, “Specific recognition mechanism of an antibody to sulfated tyrosine and its potential use in biological research” (The Journal of Biological Chemistry, 2025)
Entries after “also recorded” stand apart in the source; their conditions may differ. Where no end group is shown, it is not given here. [ ]: non-standard residue; d: D form. sY = N[C@@H](Cc1ccc(OS(=O)(=O)O)cc1)C(=O)O

What was measured:
[1] = test system: YU2 (CCR5 tropic strain) strain in TZM-bl cells; experiment: Pseudoviral assay (single-round viral infective assay) in TZM-bl cells; type: cell-based, HIV; details: 48 h post-infection, luciferase read-out, BA8 up to 50 μg/ml (approximately 350 nM)
Description: Subsequently, we conducted a pseudoviral test using TZM-bl cells.
The anti-HIV activity of BA8, isotype control antibody, and Maraviroc (Sigma-Aldrich) in a single-round viral infective assay against the YU2 (CCR5 tropic strain) strain in TZM-bl cells. At 48 h post-infection, cells were lysed, and relative light units were measured using a Steady-Glo luciferase assay system and GloMax Discover microplate reader (Promega).

BA8 Fab [2] = experiment: SPR analysis of sulfated, non-sulfated and partially sulfated CCR5 N-terminal peptides with BA8; type: binding, rabbit; details: for kon: SPR Biacore 8K, BA8 Fab immobilized on CM5 chip, PBS 0.005% Tween 20, global fitting; for kon / Kd / koff: partially sulfated peptide as analyte; for Kd / koff / binding of peptide to BA8 in SPR, in words: SPR, BA8 Fab immobilized; for binding of peptide to BA8 in SPR, in words: peptides 2 to 162 nM as analyte (statements of b30 and b31 cover SPR and ITC)
Source text: To quantitatively evaluate the intermolecular interaction between BA8 and the sulfated N-terminal peptide of CCR5, we prepared a Fab fragment of BA8 as a recombinant protein (Fig. S2, A and B) and conducted kinetic interaction analysis using SPR. The Fab was immobilized on a sensor chip using amine coupling, and the synthesized sulfated and non-sulfated N-terminal peptides of CCR5 were used as the analytes.
(§1) We prepared these partially sulfated peptides and analyzed their interactions with BA8 using SPR and ITC (Fig. 4, B and C, Tables 3 and 4). […] These findings indicate that sulfation at 7Tys is essential for BA8 recognition. […] Thus, the high specificity and affinity of BA8 for the sulfated CCR5 N-terminal peptide likely rely heavily on the sulfation at 7Tys and 8Tys. […] In other words, BA8 recognizes not only sulfation of the N-terminal peptide of CCR5, but it is also selective about the sulfation site.
The bindings of the peptides to Fabs were analyzed using a Biacore 8K instrument (Cytiva). Each Fab was immobilized on the surface of a CM5 sensor chip (Cytiva) by the amine-coupling method according to the manufacturer’s instructions in the condition of pH 5.5. The immobilization level reached to about 3000 Response Unit (RU). PBS containing 0.005% Tween 20 was used as the running buffer. The kinetic data were obtained by injection of increasing concentrations of peptides into the sensor chip. The flow rate of the analyte were set to 30 μl/min. The data were analyzed using BIAevaluation software (Cytiva), and the binding affinity as well as kinetic parameters were calculated by a global fitting of the curves.

BA8 Fab [3] = experiment: ITC analysis of sulfated, non-sulfated and partially sulfated CCR5 N-terminal peptides with BA8; type: binding, rabbit; details: PBS; for Kd / ΔH: 10 μM BA8 Fab in cell, 100 μM peptide in syringe, 25 °C
Source text: To determine the thermodynamic parameters accompanying the interaction, we performed an ITC analysis (Fig. 2B, Table 2).
as §1
The ITC experiments were performed using a MicroCal PEAQ-ITC (Malvern Panalytical, Malvern, UK). The BA8 Fab fragment antibody, sufficiently dialyzed in PBS, was adjusted to 10 μM for the cells, and the CCR5 N-terminal peptide, dissolved in the dialysate, was adjusted to 100 μM for the syringe. The first injection of 0.5 μl (omitted from the analysis) was followed by 19 injections of 2 μl with 120 s intervals at a constant temperature of 25 °C. The titration syringe was continuously stirred at 750 rpm.
The baselines were smoothly adjusted for the step after each titration saturated and fitted as one set of sites binding in MicroCal PEAQ-ITC Analysis Software (Malvern Panalytical, Malvern, UK).

BA8 Fab [4] = experiment: DSF stabilizing effect of peptides on BA8; design: species or system rabbit; details: BA8 Fab before and after binding of peptide (solution after ITC)
Description: To assess the effect of sulfated peptide binding on the thermal stability of BA8, we performed differential scanning fluorimetry (DSF) measurements (Fig. 2C) ([25]). The melting temperature (Tm) of BA8 forming a complex with the sulfated peptide was 75.6 °C, whereas the pre-binding Tm was 70.8 °C.
The stabilization effect of the addition of these partially sulfated peptides on BA8 was evaluated using DSF measurements (Fig. S8).
The DSF thermal stability measurements were performed using a CFX Real-Time PCR System (Bio-Rad). First, 1 μl of 100 × SYPRO Orange stain was diluted with 19 μl of 8.3 μM unbound-BA8 Fab or the solution remaining in the cell after ITC measurement. Next, fluorescence was scanned every minute to obtain melting curves of the solutions as they were heated at 1.0 °C/min. The change in the scanned relative fluorescence unit per unit time was recorded, and the temperature at its peak was considered to be the melting temperature (Tm) ([42]).

[5] = target: endogenous CCR5 expressed on TZM-bl cells (human (endogenous in TZM-bl)) (UniProt P51681); experiment: flow cytometry on cells; transfected HEK293 cells (C, C1, C2, C12) or TZM-bl cells fixed with 2% paraformaldehyde; BA8 IgG detected with goat anti-rabbit IgG Alexa 488; median fluorescence against BA8 concentration fitted with a sigmoid function
[6] = target: full-length CCR5-FLAG co-expressed with TPST1 and TPST2 in HEK293 cells (C12 cells), sulfated by TPST2 (UniProt P51681); experiment: as above
[7] = target: full-length CCR5-FLAG co-expressed with TPST2 in HEK293 cells (C2 cells), sulfated by TPST2 (UniProt P51681); experiment: as above
full-length CCR5-FLAG co-expressed with TPST2 in HEK293 cells (C2 cells), sulfated by TPST2, sequence (P51681 whole entry): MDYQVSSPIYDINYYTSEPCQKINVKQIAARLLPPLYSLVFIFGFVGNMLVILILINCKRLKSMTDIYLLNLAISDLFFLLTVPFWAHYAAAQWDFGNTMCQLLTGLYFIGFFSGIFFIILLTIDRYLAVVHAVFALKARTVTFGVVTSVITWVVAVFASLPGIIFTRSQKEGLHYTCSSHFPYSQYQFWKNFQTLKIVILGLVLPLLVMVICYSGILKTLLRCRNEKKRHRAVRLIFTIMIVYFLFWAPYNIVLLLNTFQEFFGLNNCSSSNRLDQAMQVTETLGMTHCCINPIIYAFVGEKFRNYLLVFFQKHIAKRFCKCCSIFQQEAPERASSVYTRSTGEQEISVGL

endogenous CCR5 expressed on TZM-bl cells (human (endogenous in TZM-bl)), sequence (P51681 whole entry): as above
full-length CCR5-FLAG co-expressed with TPST1 and TPST2 in HEK293 cells (C12 cells), sulfated by TPST2, sequence (P51681 whole entry): as above

## Maraviroc [reference compound]
[1]
  inhibition of HIV infection, in words: inhibited HIV infection; also recorded: concentration-dependent inhibition of viral infection

## TYS3,7: partially sulfated CCR5 N-terminal peptide containing 3Tys and 7Tys (PI[sY]DIN[sY]YTSE; UniProt P51681 8-18, looked up, fragment)
BA8 Fab [2]
  kon: 265000 mol/L/s
  Kd: 45 nM
  koff: 0.0119 s⁻¹
  binding of peptide to BA8 in SPR, in words: weak binding
BA8 Fab [2]; listed as TYS37
  binding of peptide to BA8 in SPR, in words: bound
BA8 Fab [3]
  Kd: 7.65 nM
  ΔH: -15.8 kcal/mol
BA8 Fab [3]; 10 μM BA8 Fab, 100 μM peptide
  ΔG: -11.1 kcal/mol
  −TΔS: 4.68 kcal/mol
BA8 Fab [4]
  effect of the peptide on the thermal stability (Tm) of BA8, in words: lower than those of TYS3,7,8
BA8 Fab [4]; listed as TYS37
  effect of the peptide on the thermal stability (Tm) of BA8, in words: contribute to the stabilization of BA8

## TYS3,8: partially sulfated CCR5 N-terminal peptide containing 3Tys and 8Tys (PI[sY]DINY[sY]TSE; UniProt P51681 8-18, looked up, fragment)
BA8 Fab [2]
  binding of peptide to BA8 in SPR, in words: did not exhibit binding
BA8 Fab [2]; listed as TYS38
  binding of peptide to BA8 in SPR, in words: no binding
BA8 Fab [4]
  effect of the peptide on the thermal stability (Tm) of BA8, in words: did not change the thermal stability of BA8 at all

## TYS3: partially sulfated CCR5 N-terminal peptide containing 3Tys (PI[sY]DINYYTSE; UniProt P51681 8-18, looked up, fragment)
BA8 Fab [2]
  binding of peptide to BA8 in SPR, in words: no binding; also recorded: did not exhibit binding
BA8 Fab [4]
  effect of the peptide on the thermal stability (Tm) of BA8, in words: did not change the thermal stability of BA8 at all

## TYS7: partially sulfated CCR5 N-terminal peptide containing 7Tys (PIYDIN[sY]YTSE; UniProt P51681 8-18, looked up, fragment)
BA8 Fab [2]
  kon: 228000 mol/L/s
  Kd: 67.8 nM
  koff: 0.0154 s⁻¹
  binding of peptide to BA8 in SPR, in words: bound; also recorded: weak binding
BA8 Fab [3]
  Kd: 13.4 nM
  ΔH: -14.9 kcal/mol
BA8 Fab [3]; 10 μM BA8 Fab, 100 μM peptide
  ΔG: -10.7 kcal/mol
  −TΔS: 4.21 kcal/mol
BA8 Fab [4]
  effect of the peptide on the thermal stability (Tm) of BA8, in words: contribute to the stabilization of BA8; also recorded: lower than those of TYS3,7,8

## sulfated peptide: CCR5 N-terminal peptide Pro8 to Ser18 with sulfated Tyr10, Tyr14, and Tyr15; fully sulfated (PI[sY]DIN[sY][sY]TSE; UniProt P51681 8-18, looked up, fragment)
BA8 Fab [2]
  binding of peptide to BA8 in SPR, in words: high binding affinity in the nanomolar range
BA8 Fab [3]; 10 μM BA8 Fab, 100 μM peptide
  binding of peptide to BA8 in ITC, in words: so high that it could not be accurately measured

B1: BA8 full-length IgG (recombinant, rabbit IgG Fc) (antibody, V domains shown)
VH: QSLEESGGGLFKPTDTLTLTCTVSGFSLSSYSIRWVRQAPGNGLEWIGAIGSGGNAYYTSWAKSRSTITRNTNENTVTLKMTSLTVADTATYFCARGGINFGIWGPGTLVTVSS
VL: AAVLTQTPSPVSAAVGSTVTINCQSSQSVYSKNWLSWFQQKPGQPPKQLIYSASTLDSGVPSRFSGSGSGTQFTLTISGVQCDDAATYYCQGTYGDASAFGGGTEVVVK
[5]
  EC50: 49 nM
[6]
  EC50: 3.71 nM
[7]
  EC50: 3.64 nM
